Results taken from patent US10662194B2, “Substituted 6-anilino-9-heterocyclylpurine derivatives for inhibition of plant stress” (UNIVERZITA PALACKEHO V OLOMOUCI, priority 2014, dated 2020).
Converted amounts (≈) assume the structure as drawn. Marks after values point to notes of the source that are not given here.

How the values were obtained:
[1] = target: T1, AHK3 (Arabidopsis thaliana, UniProt Q9C5U1); experiment: Escherichia coli cytokinin receptor activation assay (AHK3); assay type: cell-based; details: 10^−7 M-5×10^−5 M, compared to trans-zeatin, FIG. 1
T1 construct: expressed in transfected cells; host or cells: Escherichia coli strain KMI001
T1 sequence (Q9C5U1 1-1036): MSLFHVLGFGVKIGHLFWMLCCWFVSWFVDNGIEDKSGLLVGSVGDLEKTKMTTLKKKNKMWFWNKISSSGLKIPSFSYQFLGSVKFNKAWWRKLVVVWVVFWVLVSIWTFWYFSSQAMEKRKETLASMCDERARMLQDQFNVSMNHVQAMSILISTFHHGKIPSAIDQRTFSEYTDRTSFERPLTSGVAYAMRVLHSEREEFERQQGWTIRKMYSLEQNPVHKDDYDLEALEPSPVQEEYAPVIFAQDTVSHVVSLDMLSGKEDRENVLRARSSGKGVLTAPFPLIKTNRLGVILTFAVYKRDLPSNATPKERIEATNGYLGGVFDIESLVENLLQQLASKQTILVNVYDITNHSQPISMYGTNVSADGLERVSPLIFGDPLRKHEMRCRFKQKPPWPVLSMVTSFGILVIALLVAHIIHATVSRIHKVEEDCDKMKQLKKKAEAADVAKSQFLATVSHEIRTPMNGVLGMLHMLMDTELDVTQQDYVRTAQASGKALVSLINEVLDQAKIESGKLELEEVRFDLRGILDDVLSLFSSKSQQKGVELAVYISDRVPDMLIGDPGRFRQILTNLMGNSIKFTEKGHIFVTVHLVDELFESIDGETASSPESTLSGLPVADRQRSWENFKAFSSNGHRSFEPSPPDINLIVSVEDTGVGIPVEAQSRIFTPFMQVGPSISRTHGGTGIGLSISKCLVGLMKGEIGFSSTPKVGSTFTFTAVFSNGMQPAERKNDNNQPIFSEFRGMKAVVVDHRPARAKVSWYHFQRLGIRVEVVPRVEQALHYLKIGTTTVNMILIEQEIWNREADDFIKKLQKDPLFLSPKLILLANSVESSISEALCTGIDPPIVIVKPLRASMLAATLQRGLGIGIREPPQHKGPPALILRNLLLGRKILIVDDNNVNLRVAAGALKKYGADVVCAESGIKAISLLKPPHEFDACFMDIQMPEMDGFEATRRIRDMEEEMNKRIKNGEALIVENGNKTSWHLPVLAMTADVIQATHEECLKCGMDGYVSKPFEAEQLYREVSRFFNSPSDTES
Protocol: (§1) Escherichia coli strains KMI001 harbouring the plasmid pIN-III-AHK4 or pSTV28-AHK3 were grown overnight at 25° C. in M9 media enriched with 0.1% casamino acids to OD600˜1. The preculture was diluted 1:600 in 1 ml M9 medium containing 0.1% casamino acids and 1 μL stock solution of either the tested compound (10^−7 M-5×10^−5 M) or solvent control (DMSO, ethanol, methanol) were added. The cultures were further grown at 25° C. in microtiter plate, 200 μL per well. […] The cultures were centrifuged and 50 μL aliquots of the supernatant were transferred to microtiter plate containing 2 μL 50 mM 4-methyl umbelliferyl galactoside which was subsequently incubated for 1 h at 37° C. The reaction was stopped by adding 100 μL 0.2 M Na2CO3. Fluorescence was measured using a Fluoroscan Ascent (Labsystems, Finland) at the excitation and emission wavelengths of 365 and 460 nm, respectively. The OD600 of remaining culture was determined and β-galactosidase activity was calculated as nmol 4-methylumbelliferone×OD600^−1×h^−1.

[2] = Compound solubility limit in the test medium; assay type: physicochemical; details: read-out: highest concentration accessible due to the compound solubility
Text: Maintenance of genome integrity is essential for homeostasis and survival as impaired DNA damage response may predispose to grave pathologies such as neurodegenerative and immunodeficiency syndromes, cancer and premature aging (Mistrik et al., 2009). The potential effect of compound 12 on stimulation of DNA breakage was thus further estimated through analysis of phosphorylated histone H2AX (gamma-H2AX) quantified by optimized automated single-cell image analysis (Mistrik et al., 2009). The compound 12 was tested in concentration of 100 μM, the highest concentration accessible due to the compound solubility. Induction of DNA breakage was tested using human U2OS cells. The U2OS cells were cultivated at standard cultivation condition (37° C., 5% CO2). As a positive control, cells were irradiated by roentgen radiation (Baltobloc) (0.5 Gy-2 Gy), one hour later fixed and stained for γ-H2AX, a well established marker of the DNA damage. Parallel samples were treated by compound 12 for 24 hours, fixed and also stained for γ-H2AX. Microscopy analysis followed by computer based signal quantification was performed as described previously (Mistrik et al., 2009).

[3] = test system: maize hybrides Amadeo and Zidane; experiment: Seed coating, shoot biomass of silage maize (field experiment); assay type: in vivo
Protocol: Based on the results discussed in previous Example 25, field plot experiments were performed on two different locations (Kroměříž Czech Republic; Olomouc, Czech Republic) in years 2012 and 2013 to evaluate the effect of seed coating with compound 12 on biomass formation of maize. In
the season 2012 the seeds of maize (hybrid Amadeo; KWS, FAO 230) were coated with 10 and 50 μM water solution of compound 12 (8 L of solution per 1000 kg of seeds). The seeds were dried and then sown in the sowing rate 90.000 seeds per hectare in 4 replications per each variant in randomized positions (each replication was 10 square meter plot). The plants were harvested when reached the stage of 33-34% of dry mass. The plants were then analyzed for their moisture and standardized dry mass.
The experiment was repeated in the season 2013 with 50 μM concentration of compound 12 in the same experimental design with maize hybrid Zidane (KWS, FAO 250).

[4] = target: T2, CRE1/AHK4 (Arabidopsis thaliana, UniProt Q9C5U0); experiment: Escherichia coli cytokinin receptor activation assay (CRE1/AHK4); assay type: cell-based; details: 10^−7 M-5×10^−5 M, compared to trans-zeatin, FIG. 1
T2 construct: expressed in transfected cells; host or cells: Escherichia coli strain KMI001
T2 sequence (Q9C5U0 whole entry): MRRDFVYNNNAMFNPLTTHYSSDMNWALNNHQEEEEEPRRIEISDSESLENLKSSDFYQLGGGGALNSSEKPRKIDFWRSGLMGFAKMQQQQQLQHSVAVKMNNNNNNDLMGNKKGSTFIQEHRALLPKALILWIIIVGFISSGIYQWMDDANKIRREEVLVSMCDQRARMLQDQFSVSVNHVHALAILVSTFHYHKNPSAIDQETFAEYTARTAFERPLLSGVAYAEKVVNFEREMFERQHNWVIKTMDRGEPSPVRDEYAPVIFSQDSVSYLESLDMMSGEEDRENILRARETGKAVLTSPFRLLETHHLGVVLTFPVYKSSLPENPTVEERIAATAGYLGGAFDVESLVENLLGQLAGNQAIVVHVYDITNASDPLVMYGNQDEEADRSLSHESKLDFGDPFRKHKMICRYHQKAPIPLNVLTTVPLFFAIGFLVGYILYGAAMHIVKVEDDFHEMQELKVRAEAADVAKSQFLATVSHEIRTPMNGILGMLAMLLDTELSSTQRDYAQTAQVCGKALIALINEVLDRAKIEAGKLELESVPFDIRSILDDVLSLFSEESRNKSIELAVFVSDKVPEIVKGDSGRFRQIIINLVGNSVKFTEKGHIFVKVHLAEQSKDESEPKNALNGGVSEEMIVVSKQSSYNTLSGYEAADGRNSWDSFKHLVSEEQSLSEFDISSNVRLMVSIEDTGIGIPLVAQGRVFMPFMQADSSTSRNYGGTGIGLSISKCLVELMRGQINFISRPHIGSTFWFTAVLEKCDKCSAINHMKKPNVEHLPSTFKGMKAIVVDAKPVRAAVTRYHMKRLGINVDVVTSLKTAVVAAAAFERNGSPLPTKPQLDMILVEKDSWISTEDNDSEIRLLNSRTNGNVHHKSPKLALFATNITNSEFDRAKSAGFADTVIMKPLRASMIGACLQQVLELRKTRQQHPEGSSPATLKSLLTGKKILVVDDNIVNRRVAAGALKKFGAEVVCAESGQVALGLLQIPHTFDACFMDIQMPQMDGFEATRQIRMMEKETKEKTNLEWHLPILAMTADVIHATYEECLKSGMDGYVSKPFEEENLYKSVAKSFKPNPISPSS
Protocol: as §1

COc1cccc(Nc2nc(Cl)nc3c2ncn3C2CCCCO2)c1 (stereo not shown) [compound 12, 2-chloro-6-(3-methoxyanilino)-9-(tetrahydropyran-2-yl)purine]
ability to activate cytokinin receptor AHK3 [1]: very low ability to activate | solubility [2]: 100 µM (≈ 36 µg/mL) | Absolute dry matter yield ([3]; 10 μM, Kroměříž, 2012): 23.06 t/ha | Absolute green matter yield ([3]; 10 μM, Kroměříž, 2012): 52.19 t/ha | Height before harvest ([3]; 10 μM, Kroměříž, 2012): 276.6 cm | Height before harvest (% of control) ([3]; 10 μM, Kroměříž, 2012): 101.0 % of control | Relative dry matter yield (% of control) ([3]; 10 μM, Kroměříž, 2012): 110.85 % of control | Absolute dry matter yield ([3]; 10 μM, Olomouc, 2012): 17.01 t/ha | Absolute green matter yield ([3]; 10 μM, Olomouc, 2012): 43.20 t/ha | Height before harvest ([3]; 10 μM, Olomouc, 2012): 237.3 cm | Height before harvest (% of control) ([3]; 10 μM, Olomouc, 2012): 98.3 % of control | Relative dry matter yield (% of control) ([3]; 10 μM, Olomouc, 2012): 110.94 % of control | average silage yield counted from all trials ([3]; 10 μM, counted from 2 trials): 110.9% | Absolute dry matter yield ([3]; 50 μM, Kroměříž, 2012): 22.18 t/ha | Absolute green matter yield ([3]; 50 μM, Kroměříž, 2012): 49.52 t/ha | Height before harvest ([3]; 50 μM, Kroměříž, 2012): 273.5 cm | Height before harvest (% of control) ([3]; 50 μM, Kroměříž, 2012): 99.8 % of control | Relative dry matter yield (% of control) ([3]; 50 μM, Kroměříž, 2012): 106.63 % of control | Absolute dry matter yield ([3]; 50 μM, Kroměříž, 2013): 22.33 t/ha | Absolute green matter yield ([3]; 50 μM, Kroměříž, 2013): 66.47 t/ha | Relative dry matter yield (% of control) ([3]; 50 μM, Kroměříž, 2013): 107.82* % of control | Absolute dry matter yield ([3]; 50 μM, Olomouc, 2012): 17.80 t/ha | Absolute green matter yield ([3]; 50 μM, Olomouc, 2012): 44.31 t/ha | Height before harvest ([3]; 50 μM, Olomouc, 2012): 235.8 cm | Height before harvest (% of control) ([3]; 50 μM, Olomouc, 2012): 97.7 % of control | Relative dry matter yield (% of control) ([3]; 50 μM, Olomouc, 2012): 116.06 % of control | Absolute dry matter yield ([3]; 50 μM, Olomouc, 2013): 19.23 t/ha | Absolute green matter yield ([3]; 50 μM, Olomouc, 2013): 68.78 t/ha | Height before harvest ([3]; 50 μM, Olomouc, 2013): 246.4 cm | Height before harvest (% of control) ([3]; 50 μM, Olomouc, 2013): 100.8 % of control | Relative dry matter yield (% of control) ([3]; 50 μM, Olomouc, 2013): 101.33 % of control | average silage yield counted from all trials ([3]; 50 μM, counted from 3 trials): 105.3% | effect on the plant height ([3]; seed treatment, all field plot experiments): without any effect on the plant height | ability to activate cytokinin receptor CRE1/AHK4 [4]: very low ability to activate
